# In ChEMBL document CHEMBL3885861, “Open TG-GATES”:
# Species on record: Rattus norvegicus
# Assay: Open TG-GATES - Regimen: Single
# Assay type: toxicity, organism-based, Sprague-Dawley
# Design: regimen Single, gender Male, age 6 weeks
# Conditions: in vivo, po, 100 mg/kg, route gavage, dose level Middle; for APTT / Bas / Eos / Fbg / Hb / Ht / Lym / MCH / MCHC / MCV / Mono / Neu / PT / Plat / RBC / Ret / WBC: tissue Blood; for KIDNEY_L / KIDNEY_R / KIDNEY_TOTAL: tissue Kidney; for LIVER: tissue Liver; for A/G / ALP / ALT / AST / BUN / CRE / Ca / Cl / DBIL / GLC / IP / K / LDH / Na / PL / RALB / TBIL / TC / TG / TP / gamma-GTP: tissue Plasma
structure (smiles),measurement,setting,value
ClC(Cl)(Cl)Cl [CARBON TETRACHLORIDE],TERMINAL_BW,3 h,207.5 g
same,APTT,3 h,20.3 s
same,Bas,3 h,0%
same,Eos,3 h,1%
same,Fbg,3 h,222.4 mg/dL
same,Hb,3 h,12.7 g/dL
same,Ht,3 h,36.6%
same,Lym,3 h,76.4%
same,MCH,3 h,21.8 pg
same,MCHC,3 h,34.8%
same,MCV,3 h,62.7 fL
same,Mono,3 h,2.8%
same,Neu,3 h,19.8%
same,PT,3 h,12.6 s
same,Plat,3 h,129.7 x10_4/uL
same,RBC,3 h,583.2 x10_4/ul
same,Ret,3 h,8.7%
same,WBC,3 h,76.6 x10_2/uL
same,KIDNEY_L,3 h,0.9 g
same,KIDNEY_R,3 h,0.9 g
same,KIDNEY_TOTAL,3 h,1.8 g
same,LIVER,3 h,9.4 g
same,A/G,3 h,1.7
same,ALP,3 h,1077.4 IU/L
same,ALT,3 h,36.2 IU/L
same,AST,3 h,70 IU/L
same,BUN,3 h,10.2 mg/dL
same,CRE,3 h,0.4 mg/dL
same,Ca,3 h,10.8 mg/dL
same,Cl,3 h,104.6 meq/L
same,DBIL,3 h,0.1 mg/dL
same,GLC,3 h,186.4 mg/dL
same,IP,3 h,9.4 mg/dL
same,K,3 h,3.9 meq/L
same,LDH,3 h,156 IU/L
same,Na,3 h,140.2 meq/L
same,PL,3 h,148.6 mg/dL
same,RALB,3 h,3.4 g/dL
same,TBIL,3 h,0.2 mg/dL
same,TC,3 h,73.6 mg/dL
same,TG,3 h,103.8 mg/dL
same,TP,3 h,5.4 g/dL
same,gamma-GTP,3 h,1.2 IU/L
same,TERMINAL_BW,6 h,204.2 g
same,APTT,6 h,18 s
same,Bas,6 h,0%
same,Eos,6 h,1%
same,Fbg,6 h,224.8 mg/dL
same,Hb,6 h,13.3 g/dL
same,Ht,6 h,38.1%
same,Lym,6 h,71.2%
same,MCH,6 h,21.8 pg
same,MCHC,6 h,35%
same,MCV,6 h,62.4 fL
same,Mono,6 h,3%
same,Neu,6 h,24.8%
same,PT,6 h,12.7 s
same,Plat,6 h,134.8 x10_4/uL
same,RBC,6 h,611 x10_4/ul
same,Ret,6 h,8.8%
same,WBC,6 h,76 x10_2/uL
same,KIDNEY_L,6 h,0.9 g
same,KIDNEY_R,6 h,0.9 g
same,KIDNEY_TOTAL,6 h,1.8 g
same,LIVER,6 h,9 g
same,A/G,6 h,1.8
same,ALP,6 h,913.2 IU/L
same,ALT,6 h,35 IU/L
same,AST,6 h,65.6 IU/L
same,BUN,6 h,11.4 mg/dL
same,CRE,6 h,0.4 mg/dL
same,Ca,6 h,10.5 mg/dL
same,Cl,6 h,104 meq/L
same,DBIL,6 h,0.1 mg/dL
same,GLC,6 h,190.2 mg/dL
same,IP,6 h,10.2 mg/dL
same,K,6 h,3.9 meq/L
same,LDH,6 h,164.6 IU/L
same,Na,6 h,140.2 meq/L
same,PL,6 h,154.4 mg/dL
same,RALB,6 h,3.5 g/dL
same,TBIL,6 h,0.2 mg/dL
same,TC,6 h,78.8 mg/dL
same,TG,6 h,67.2 mg/dL
same,TP,6 h,5.4 g/dL
same,gamma-GTP,6 h,1.4 IU/L
same,TERMINAL_BW,9 h,205.2 g
same,APTT,9 h,18.5 s
same,Bas,9 h,0%
same,Eos,9 h,0.8%
same,Fbg,9 h,229.8 mg/dL
same,Hb,9 h,12.9 g/dL
same,Ht,9 h,37%
same,Lym,9 h,74.2%
same,MCH,9 h,21.2 pg
same,MCHC,9 h,34.8%
same,MCV,9 h,60.8 fL
same,Mono,9 h,3%
same,Neu,9 h,21.8%
same,PT,9 h,12.5 s
same,Plat,9 h,125.2 x10_4/uL
same,RBC,9 h,610.4 x10_4/ul
same,Ret,9 h,8%
same,WBC,9 h,72.7 x10_2/uL
same,KIDNEY_L,9 h,0.9 g
same,KIDNEY_R,9 h,0.9 g
same,KIDNEY_TOTAL,9 h,1.8 g
same,LIVER,9 h,8.4 g
same,A/G,9 h,1.6
same,ALP,9 h,848.2 IU/L
same,ALT,9 h,28.2 IU/L
same,AST,9 h,62.4 IU/L
same,BUN,9 h,11.4 mg/dL
same,CRE,9 h,0.4 mg/dL
same,Ca,9 h,10.5 mg/dL
same,Cl,9 h,103.6 meq/L
same,DBIL,9 h,0.1 mg/dL
same,GLC,9 h,196 mg/dL
same,IP,9 h,10.3 mg/dL
same,K,9 h,3.7 meq/L
same,LDH,9 h,173.2 IU/L
same,Na,9 h,140.4 meq/L
same,PL,9 h,141.2 mg/dL
same,RALB,9 h,3.3 g/dL
same,TBIL,9 h,0.2 mg/dL
same,TC,9 h,66.6 mg/dL
same,TG,9 h,65 mg/dL
same,TP,9 h,5.5 g/dL
same,gamma-GTP,9 h,0.8 IU/L
same,TERMINAL_BW,24 h,210.9 g
same,APTT,24 h,18.9 s
same,Bas,24 h,0%
same,Eos,24 h,1%
same,Fbg,24 h,229.8 mg/dL
same,Hb,24 h,13.6 g/dL
same,Ht,24 h,39.4%
same,Lym,24 h,79.4%
same,MCH,24 h,21.8 pg
same,MCHC,24 h,34.5%
same,MCV,24 h,63 fL
same,Mono,24 h,3.4%
same,Neu,24 h,15.8%
same,PT,24 h,12.6 s
same,Plat,24 h,126.7 x10_4/uL
same,RBC,24 h,625.2 x10_4/ul
same,Ret,24 h,8.6%
same,WBC,24 h,98.1 x10_2/uL
same,KIDNEY_L,24 h,0.9 g
same,KIDNEY_R,24 h,0.9 g
same,KIDNEY_TOTAL,24 h,1.8 g
same,LIVER,24 h,10.1 g
same,A/G,24 h,1.7
same,ALP,24 h,987 IU/L
same,ALT,24 h,38.2 IU/L
same,AST,24 h,70.2 IU/L
same,BUN,24 h,16.8 mg/dL
same,CRE,24 h,0.4 mg/dL
same,Ca,24 h,10.8 mg/dL
same,Cl,24 h,104.4 meq/L
same,DBIL,24 h,0.082 mg/dL
same,GLC,24 h,189.4 mg/dL
same,IP,24 h,8.1 mg/dL
same,K,24 h,4.1 meq/L
same,LDH,24 h,280 IU/L
same,Na,24 h,140.4 meq/L
same,PL,24 h,148.2 mg/dL
same,RALB,24 h,3.5 g/dL
same,TBIL,24 h,0.1 mg/dL
same,TC,24 h,70.4 mg/dL
same,TG,24 h,78 mg/dL
same,TP,24 h,5.6 g/dL
same,gamma-GTP,24 h,1 IU/L
